The IC50 is the concentration that inhibits the measured activity by half.

The text below walks through data of US20100267697A1, “ION CHANNEL MODULATORS” (Wyeth, priority 2006, published 2010).

Like-named read-outs stand apart in the source and are kept apart here.

For assay [1], the target named is Cav2.2 (UniProt Q02294). Nature of the assay: Oocyte assay (Xenopus oocyte heterologous expression, current at fifth pulse P5). Format: cell-based. The following applies: Xenopus oocytes; fifth pulse (P5) of 5 Hz train, holding potential −100 mV. As to the method:
The assay was performed on various calcium channels (e.g., Cav2.2 subfamily) whereby the modulation of the calcium channel was measured for each tested compound.

The target in assay [2] is T1, Cav2.2 (Homo sapiens, UniProt Q00975).
T1 construct: expressed in transfected cells; host or cells: HEK-293T/17 (transient, FuGENE 6)
T1 sequence (Q00975 whole entry): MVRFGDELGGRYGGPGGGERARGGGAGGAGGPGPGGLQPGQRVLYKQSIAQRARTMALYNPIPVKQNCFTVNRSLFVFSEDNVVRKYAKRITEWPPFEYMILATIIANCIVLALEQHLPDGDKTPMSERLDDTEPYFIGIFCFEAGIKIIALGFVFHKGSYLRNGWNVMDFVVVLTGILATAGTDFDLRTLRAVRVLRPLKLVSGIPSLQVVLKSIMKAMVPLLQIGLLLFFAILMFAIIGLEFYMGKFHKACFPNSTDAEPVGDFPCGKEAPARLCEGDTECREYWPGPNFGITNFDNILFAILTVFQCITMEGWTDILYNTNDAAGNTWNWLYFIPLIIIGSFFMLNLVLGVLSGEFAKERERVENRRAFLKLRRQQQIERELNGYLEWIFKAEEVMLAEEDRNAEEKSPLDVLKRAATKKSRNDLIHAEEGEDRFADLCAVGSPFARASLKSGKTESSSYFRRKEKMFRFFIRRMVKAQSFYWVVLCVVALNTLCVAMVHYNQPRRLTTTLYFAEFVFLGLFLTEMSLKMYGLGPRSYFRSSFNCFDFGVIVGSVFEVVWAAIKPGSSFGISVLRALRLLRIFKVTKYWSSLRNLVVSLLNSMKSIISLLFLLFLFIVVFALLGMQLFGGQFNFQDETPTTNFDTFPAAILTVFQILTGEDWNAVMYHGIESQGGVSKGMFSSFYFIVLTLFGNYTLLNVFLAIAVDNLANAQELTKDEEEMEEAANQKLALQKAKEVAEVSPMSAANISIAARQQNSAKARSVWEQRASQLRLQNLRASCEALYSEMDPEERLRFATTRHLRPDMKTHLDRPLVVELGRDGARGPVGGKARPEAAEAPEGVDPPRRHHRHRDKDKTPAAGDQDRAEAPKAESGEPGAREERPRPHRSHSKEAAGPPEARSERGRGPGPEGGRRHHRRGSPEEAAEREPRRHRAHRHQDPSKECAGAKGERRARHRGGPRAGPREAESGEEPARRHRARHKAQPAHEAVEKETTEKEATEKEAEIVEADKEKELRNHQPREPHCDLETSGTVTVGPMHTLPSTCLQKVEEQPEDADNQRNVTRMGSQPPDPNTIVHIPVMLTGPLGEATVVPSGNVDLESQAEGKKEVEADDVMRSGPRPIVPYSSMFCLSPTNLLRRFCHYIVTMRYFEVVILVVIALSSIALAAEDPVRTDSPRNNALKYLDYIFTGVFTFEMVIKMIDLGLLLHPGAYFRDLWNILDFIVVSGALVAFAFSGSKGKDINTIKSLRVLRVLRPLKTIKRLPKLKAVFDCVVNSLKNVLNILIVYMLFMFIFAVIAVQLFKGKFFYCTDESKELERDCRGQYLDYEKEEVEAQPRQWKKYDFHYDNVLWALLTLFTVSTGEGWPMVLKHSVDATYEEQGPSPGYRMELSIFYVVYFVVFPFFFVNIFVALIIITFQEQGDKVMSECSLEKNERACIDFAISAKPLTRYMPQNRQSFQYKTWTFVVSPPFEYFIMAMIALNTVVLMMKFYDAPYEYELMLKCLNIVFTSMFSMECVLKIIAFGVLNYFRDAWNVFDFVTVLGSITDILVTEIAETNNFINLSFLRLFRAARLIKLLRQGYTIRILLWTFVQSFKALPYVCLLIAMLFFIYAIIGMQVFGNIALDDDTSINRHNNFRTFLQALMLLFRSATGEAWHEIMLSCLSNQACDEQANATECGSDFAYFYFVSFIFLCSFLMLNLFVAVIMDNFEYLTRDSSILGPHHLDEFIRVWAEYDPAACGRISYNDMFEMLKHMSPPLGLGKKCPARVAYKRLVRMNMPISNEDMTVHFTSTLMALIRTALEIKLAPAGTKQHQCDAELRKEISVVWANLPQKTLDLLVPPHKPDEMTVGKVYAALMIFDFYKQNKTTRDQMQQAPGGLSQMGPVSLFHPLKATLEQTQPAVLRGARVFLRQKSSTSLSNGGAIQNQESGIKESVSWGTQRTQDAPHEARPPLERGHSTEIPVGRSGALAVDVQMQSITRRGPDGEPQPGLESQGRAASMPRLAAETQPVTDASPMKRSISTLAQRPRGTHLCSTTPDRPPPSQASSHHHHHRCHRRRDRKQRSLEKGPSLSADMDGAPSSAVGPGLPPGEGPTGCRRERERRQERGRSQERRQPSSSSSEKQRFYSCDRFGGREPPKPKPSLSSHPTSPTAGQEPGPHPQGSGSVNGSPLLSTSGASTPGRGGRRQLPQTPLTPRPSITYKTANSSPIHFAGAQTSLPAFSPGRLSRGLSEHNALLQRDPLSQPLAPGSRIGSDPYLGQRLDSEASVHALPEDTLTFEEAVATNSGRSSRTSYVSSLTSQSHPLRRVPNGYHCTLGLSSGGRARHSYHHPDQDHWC
T1 sequence (P54284 whole entry partner): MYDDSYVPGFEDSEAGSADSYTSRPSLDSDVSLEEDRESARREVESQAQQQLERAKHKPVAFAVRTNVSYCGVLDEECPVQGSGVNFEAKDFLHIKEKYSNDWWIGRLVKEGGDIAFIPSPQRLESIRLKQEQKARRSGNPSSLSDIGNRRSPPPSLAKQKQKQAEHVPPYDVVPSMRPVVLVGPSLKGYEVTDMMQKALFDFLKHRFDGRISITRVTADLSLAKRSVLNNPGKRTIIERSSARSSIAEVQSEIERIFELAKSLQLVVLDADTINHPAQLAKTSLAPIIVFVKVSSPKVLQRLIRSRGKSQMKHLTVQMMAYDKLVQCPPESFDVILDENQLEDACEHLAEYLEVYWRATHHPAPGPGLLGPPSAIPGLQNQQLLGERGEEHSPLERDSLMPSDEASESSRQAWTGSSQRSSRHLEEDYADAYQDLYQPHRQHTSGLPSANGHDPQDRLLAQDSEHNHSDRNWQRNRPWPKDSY
T1 sequence (P54289 25-946 partner limits assumed): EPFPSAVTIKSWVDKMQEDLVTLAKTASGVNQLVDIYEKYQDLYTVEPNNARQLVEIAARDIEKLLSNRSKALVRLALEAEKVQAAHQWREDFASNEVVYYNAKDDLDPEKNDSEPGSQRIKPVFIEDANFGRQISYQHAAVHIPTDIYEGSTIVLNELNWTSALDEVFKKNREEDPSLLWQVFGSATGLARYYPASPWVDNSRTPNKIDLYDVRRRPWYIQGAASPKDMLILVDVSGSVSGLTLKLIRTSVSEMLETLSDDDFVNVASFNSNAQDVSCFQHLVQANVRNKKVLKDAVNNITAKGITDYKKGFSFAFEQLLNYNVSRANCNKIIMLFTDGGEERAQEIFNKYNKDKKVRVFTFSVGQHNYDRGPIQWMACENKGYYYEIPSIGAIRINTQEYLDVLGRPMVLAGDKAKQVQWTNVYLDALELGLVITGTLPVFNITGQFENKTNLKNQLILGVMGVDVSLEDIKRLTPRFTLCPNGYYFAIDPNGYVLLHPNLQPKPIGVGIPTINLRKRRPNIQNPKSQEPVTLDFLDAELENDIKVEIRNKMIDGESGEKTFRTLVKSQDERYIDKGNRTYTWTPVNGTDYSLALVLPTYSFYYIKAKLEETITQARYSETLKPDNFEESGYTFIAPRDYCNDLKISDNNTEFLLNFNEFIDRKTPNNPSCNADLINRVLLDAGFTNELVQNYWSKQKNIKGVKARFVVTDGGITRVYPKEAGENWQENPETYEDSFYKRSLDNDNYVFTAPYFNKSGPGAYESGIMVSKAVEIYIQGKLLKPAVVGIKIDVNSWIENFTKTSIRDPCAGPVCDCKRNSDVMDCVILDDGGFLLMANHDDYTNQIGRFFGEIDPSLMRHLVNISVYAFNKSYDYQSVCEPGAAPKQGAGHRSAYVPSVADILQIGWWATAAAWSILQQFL
T1 sequence (P54289 947-1103 partner limits assumed): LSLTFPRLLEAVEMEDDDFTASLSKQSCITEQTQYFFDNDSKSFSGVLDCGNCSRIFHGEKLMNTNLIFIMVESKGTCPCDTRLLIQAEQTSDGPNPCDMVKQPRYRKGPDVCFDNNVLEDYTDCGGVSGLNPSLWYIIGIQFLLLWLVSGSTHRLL
The assay can be described thus: HEK assay (whole-cell patch clamp, transiently transfected HEK-293T/17 cells, pulses P1 and P5). The class given is cell-based. As to conditions: holding potential −100 mV. Put shortly: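 Whole-cell voltage clamp of HEK-293T/17 cells transiently transfected via FuGENE 6, then grown 24 h in 1% serum before recording. From −100 mV holding, trains of five 20–30 ms steps to about +10 mV at 5 Hz, repeated every 30 s; steady-state IC50s taken at first (P1) and fifth (P5) pulses to gauge use-dependent block.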
(In patch-clamp work, channel activity is measured electrically.)

Setting [3] is: fifth pulse (P5) of 5 Hz train, read-out: HEK Cav2.2 P5 IC50.
Where [4] appears, read: first pulse (P1) of 5 Hz train, read-out: HEK Cav2.2 P1 IC50.

For the molecule `CN(C)c1ccc(N(Cc2csc(N(C)c3ccc(F)cc3)n2)C(=O)C(C)(C)C)cc1` [Compound 81, N-(4-Dimethylamino-phenyl)-N-{2-[(4-fluorophenyl)-methyl-amino]-thiazol-4-ylmethyl}-2,2-dimethyl-propionamide], the results for the half-inhibitory concentration (IC50) in assay [1], in assay [2] (setting [3]) and in assay [2] (setting [4]) were 1.7 µM, 0.6 µM and 2 µM, respectively.
On the same counts, the results for `CCN(c1nc(CN(C(=O)C(C)(C)C)c2ccc(F)cc2)cs1)C1CC1` [Compound 83, N-[2-(Cyclopropyl(ethyl)amino)-thiazol-4-ylmethyl]-N-(4-fluorophenyl)-2,2-dimethyl-propionamide] are 7.1 µM, 1 µM and 3.3 µM.
Regarding `CCN(CC)c1ncc(CN(C(=O)C(C)(C)C)c2ccc(F)cc2)cn1` [Compound 84, N-(2-Diethylamino-pyrimidin-5-ylmethyl)-N-(4-fluorophenyl)-2,2-dimethyl-propionamide], the values for the IC50 in assay [1], in assay [2] (setting [3]) and in assay [2] (setting [4]) were 15.6 µM, 1.2 µM and 4.3 µM, respectively.
Regarding `CN(C)c1ccc(N(Cc2cnc(N3CCCCC3)nc2)C(=O)C(C)(C)C)cc1` [Compound 85, N-(4-Dimethylamino-phenyl)-2,2-dimethyl-N-(2-piperidin-1-yl-pyrimidin-5-ylmethyl)-propionamide], the IC50 in assay [1] was found to be 16.2 µM; in assay [2] (setting [3]), 1.9 µM; in assay [2] (setting [4]) it was 7.4 µM.
In the case of `CN(c1ccccn1)c1nc(CN(C(=O)C(C)(C)C)c2ccc(F)cc2)cs1` [Compound 93, N-(4-Fluorophenyl)-2,2-dimethyl-N-[2-(methyl-pyridin-2-yl-amino)-thiazol-4-ylmethyl]-propionamide], the half-inhibitory concentration (IC50) in assay [1] is 22.8 µM; in assay [2] (setting [3]), 0.4 µM; in assay [2] (setting [4]), 0.8 µM.
As to `CN1CCN(c2ccc(CN(C(=O)C3CCCCC3)c3ccc(F)cc3)cn2)CC1` [Compound 104, Cyclohexanecarboxylic acid (4-fluorophenyl)-[6-(4-methyl-piperazin-1-yl)-pyridin-3-ylmethyl]-amide], the results for the IC50 in assay [1], in assay [2] (setting [3]) and in assay [2] (setting [4]) were 22 µM, 2.5 µM and 14.1 µM, respectively.
On to `O=C(C1CCOC1)N(Cc1ccc(N2CCN(c3ccccn3)CC2)nc1)c1ccc(F)cc1` (stereo not drawn) [Compound 111, Tetrahydro-furan-3-carboxylic acid (4-fluorophenyl)-[6-(4-pyridin-2-yl-piperazin-1-yl)-pyridin-3-ylmethyl]-amide], for which the 50% inhibitory concentration (IC50) came to 23.2 µM in assay [1], 2.1 µM in assay [2] (setting [3]) and 18.6 µM in assay [2] (setting [4]).
